pIC50: −log10 of the molar value.
Each molecule was assayed against Recombinant human ULK1 (1-649) (Homo sapiens (Human), UniProt O75385) (assay: ULK1 ADP Glo kinase activity assay, new method (ULKtide peptide substrate)). Conditions: 25° C., 40 minutes, read-out: ULK1 biochemical IC50.
Protocol: Recombinant human ULK1 (1-649) protein expressed in Sf9 insect cells was obtained from SignalChem (Vancouver, BC), catalog #U01-11G. Active kinase was purified via N-terminal GST tag to >85% purity.
ADP GLO Kinase Assay Reagents were obtained from Promega Corp (Madison, WI), catalog #V9104.
Synthetic peptide substrate (ULKtide) with the amino acid sequence YANWLAASIYLDGKKK was obtained from ThermoFisher Scientific USA.
ULK1 inhibitor potency was determined using the luminescent ADP Glo Kinase Assay (Promega), a universal ADP detection system that measures kinase activity by quantifying the amount of ADP produced during a kinase reaction. ULK1 kinase reactions are performed in a standard 96-well microplate (20 μL reaction volume) at 25° C. for 40 minutes in the presence or absence of the test compound (12-point dilution series starting at 10 μM). Addition of peptide substrate and ATP initiates the kinase reaction.
The standard ADP Glo assay is performed in two steps. In step one, following the kinase reaction, an equal volume of ADP-Glo™ Reagent (20 μL) is added to terminate the kinase reaction and deplete the remaining ATP. In the second step, the Kinase Detection Reagent (10 μL) is added to simultaneously convert ADP to ATP and allow the newly synthesized ATP to be measured using a luciferase/luciferin reaction. Step two of the ADP Glo assay is performed in a white 384-well plate (20 μL final volume). Thirty minutes after the addition of the Detection reagent, light generated from the luciferase reaction is measured (1 second exposure) using a microplate compatible luminometer (CLARIOstar, BMG Labtech).
Inhibition of ULK1 kinase activity is determined for each test compound by comparison to DMSO only control wells. Inhibitor IC50 was calculated by plotting the change in luminescence after 30 minutes (response) versus inhibitor concentration (in log molar) then applying the four-parameter variable slope curve fit (GraphPad Prism). Inhibition of ULK1 in biochemical assay is found in Table 4.

Sequence of Recombinant human ULK1 (1-649) (O75385 1-649): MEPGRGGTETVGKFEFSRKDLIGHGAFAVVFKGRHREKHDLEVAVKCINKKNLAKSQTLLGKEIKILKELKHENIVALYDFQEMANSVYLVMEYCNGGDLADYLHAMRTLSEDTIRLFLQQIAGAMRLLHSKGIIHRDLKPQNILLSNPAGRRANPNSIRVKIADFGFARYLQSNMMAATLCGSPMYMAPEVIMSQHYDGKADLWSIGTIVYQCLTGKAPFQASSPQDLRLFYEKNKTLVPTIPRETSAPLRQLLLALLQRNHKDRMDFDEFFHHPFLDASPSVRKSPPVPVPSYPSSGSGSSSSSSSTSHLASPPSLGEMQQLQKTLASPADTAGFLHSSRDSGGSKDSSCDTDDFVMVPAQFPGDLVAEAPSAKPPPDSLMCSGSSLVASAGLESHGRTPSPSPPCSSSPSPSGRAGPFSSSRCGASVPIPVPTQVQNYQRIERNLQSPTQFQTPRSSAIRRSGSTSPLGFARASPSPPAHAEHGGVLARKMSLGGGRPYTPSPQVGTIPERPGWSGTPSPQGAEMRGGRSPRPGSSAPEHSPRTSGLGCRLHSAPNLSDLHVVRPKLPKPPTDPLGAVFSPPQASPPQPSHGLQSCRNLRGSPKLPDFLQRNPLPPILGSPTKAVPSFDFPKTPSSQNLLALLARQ

Row | Structure (SMILES) | pIC50
1 | CN1C[C@@H]2C[C@H]1CN2c1ccc(Nc2ncc(C(F)(F)F)c(-c3cc4c(s3)C(=O)N(C3COC3)CCS4(=O)=O)n2)c(C2CC2)c1 [Example 317, 7-(2-((2-cyclopropyl-4-((1S,4S)-5-methyl-2,5-diazabicyclo[2.2.1]heptan-2-yl)phenyl)amino)-5-(trifluoromethyl)pyrimidin-4-yl)-4-(oxetan-3-yl)-3,4-dihydrothieno[2,3-f][1,4]thiazepin-5(2H)-one 1,1-dioxide] | ≥ 8.30
2 | O=C1c2sc(-c3nc(Nc4cc5c(cc4C4CC4)CCNC5)ncc3C(F)(F)F)cc2S(=O)(=O)CCN1C1COC1 [Example 270, 7-(2-((6-cyclopropyl-1,2,3,4-tetrahydroisoquinolin-7-yl)amino)-5-(trifluoromethyl)pyrimidin-4-yl)-4-(oxetan-3-yl)-3,4-dihydrothieno[2,3-f][1,4]thiazepin-5(2H)-one 1,1-dioxide] | ≥ 8.30
3 | C[C@H]1CN(c2ccc(Nc3ncc(C(F)(F)F)c(-c4cc5c(s4)C(=O)N(C4COC4)CCS5(=O)=O)n3)c(C3CC3)c2)C[C@H](C)N1C [Example 351, 7-(2-((2-cyclopropyl-4-((3S,5S)-3,4,5-trimethylpiperazin-1-yl)phenyl)amino)-5-(trifluoromethyl)pyrimidin-4-yl)-4-(oxetan-3-yl)-3,4-dihydrothieno[2,3-f][1,4]thiazepin-5(2H)-one 1,1-dioxide] | 8.00 to 8.30
4 | O=C1c2sc(-c3nc(Nc4cc5c(cc4C4CC4)CN(CC4CC4)CC5)ncc3C(F)(F)F)cc2S(=O)(=O)CCN1C1COC1 [Example 256, 7-(2-((7-cyclopropyl-2-(cyclopropylmethyl)-1,2,3,4-tetrahydroisoquinolin-6-yl)amino)-5-(trifluoromethyl)pyrimidin-4-yl)-4-(oxetan-3-yl)-3,4-dihydrothieno[2,3-f][1,4]thiazepin-5(2H)-one 1,1-dioxide] | ≥ 8.30
5 | O=C1c2sc(-c3nc(Nc4cc5c(cc4C4CC4)CN(C4COC4)CC5)ncc3C(F)(F)F)cc2S(=O)(=O)CCN1C1COC1 [Example 292, 7-(2-((7-cyclopropyl-2-(oxetan-3-yl)-1,2,3,4-tetrahydroisoquinolin-6-yl)amino)-5-(trifluoromethyl)pyrimidin-4-yl)-4-(oxetan-3-yl)-3,4-dihydrothieno[2,3-f][1,4]thiazepin-5(2H)-one 1,1-dioxide] | ≥ 8.30
6 | O=C1NCCS(=O)(=O)c2cc(-c3nc(Nc4cn(C5CCNCC5)nc4C4CC4)ncc3C(F)(F)F)sc21 [Example 151, 7-(2-((3-cyclopropyl-1-(piperidin-4-yl)-1H-pyrazol-4-yl)amino)-5-(trifluoromethyl)pyrimidin-4-yl)-3,4-dihydrothieno[2,3-f][1,4]thiazepin-5(2H)-one 1,1-dioxide] | ≥ 8.30
7 | CN1CCc2cc(Nc3ncc(C(F)(F)F)c(-c4cc5c(s4)C(=O)N(CC(F)(F)F)CCS5(=O)=O)n3)c(Cl)cc2C1 [Example 144, 7-(2-((7-chloro-2-methyl-1,2,3,4-tetrahydroisoquinolin-6-yl)amino)-5-(trifluoromethyl)pyrimidin-4-yl)-4-(2,2,2-trifluoroethyl)-3,4-dihydrothieno[2,3-f][1,4]thiazepin-5(2H)-one 1,1-dioxide] | ≥ 8.30
8 | CC(C)(O)CN1CCc2cc(Nc3ncc(C(F)(F)F)c(-c4cc5c(s4)C(=O)N(C4COC4)CCS5(=O)=O)n3)c(C3CC3)cc2C1 [Example 291, 7-(2-((7-cyclopropyl-2-(2-hydroxy-2-methylpropyl)-1,2,3,4-tetrahydroisoquinolin-6-yl)amino)-5-(trifluoromethyl)pyrimidin-4-yl)-4-(oxetan-3-yl)-3,4-dihydrothieno[2,3-f][1,4]thiazepin-5(2H)-one 1,1-dioxide] | ≥ 8.30
9 | O=C1c2sc(-c3nc(Nc4cc5c(cc4C4CC4)CN(C4COC4)CC5)ncc3C(F)(F)F)cc2S(=O)(=O)CCN1C1CC1 [Example 289, 4-cyclopropyl-7-(2-((7-cyclopropyl-2-(oxetan-3-yl)-1,2,3,4-tetrahydroisoquinolin-6-yl)amino)-5-(trifluoromethyl)pyrimidin-4-yl)-3,4-dihydrothieno[2,3-f][1,4]thiazepin-5(2H)-one 1,1-dioxide] | 8.00 to 8.30
10 | CN1CCN(c2ccc(Nc3ncc(C(F)(F)F)c(-c4cc5c(s4)C(=O)N(C4COC4)CCS5(=O)=O)n3)c(C3CC3)c2)C[C@H]1C(N)=O [Example 372, (S)-4-(3-Cyclopropyl-4-((4-(4-(oxetan-3-yl)-1,1-dioxido-5-oxo-2,3,4,5-tetrahydrothieno[2,3-f][1,4]thiazepin-7-yl)-5-(trifluoromethyl)pyrimidin-2-yl)amino)phenyl)-1-methylpiperazine-2-carboxamide] | ≥ 8.30
11 | CCc1cc(C2CCN(CC(F)(F)F)CC2)ccc1Nc1ncc(C(F)(F)F)c(-c2cc3c(s2)C(=O)N(C2COC2)CCS3(=O)=O)n1 [Example 298, 7-(2-((2-Ethyl-4-(1-(2,2,2-trifluoroethyl)piperidin-4-yl)phenyl)amino)-5-(trifluoromethyl)pyrimidin-4-yl)-4-(oxetan-3-yl)-3,4-dihydrothieno[2,3-f][1,4]thiazepin-5(2H)-one 1,1-dioxide] | 7.30 to 8.00
12 | O=C1c2sc(-c3nc(Nc4cc5c(cc4C4CC4)CN(CC4CC4)CC5)ncc3C(F)(F)F)cc2S(=O)(=O)CCN1C1CC1 [Example 235, 4-cyclopropyl-7-(2-((7-cyclopropyl-2-(cyclopropylmethyl)-1,2,3,4-tetrahydroisoquinolin-6-yl)amino)-5-(trifluoromethyl)pyrimidin-4-yl)-3,4-dihydrothieno[2,3-f][1,4]thiazepin-5(2H)-one 1,1-dioxide] | ≥ 8.30

Results, then the molecule that gave them:

Row | pIC50 | Structure (SMILES)
13 | ≥ 8.30 | CCc1cc2c(cc1Nc1ncc(C(F)(F)F)c(-c3cc4c(s3)C(=O)N(C)CCS4(=O)=O)n1)CNC2 [Example 160, 7-(2-((6-ethylisoindolin-5-yl)amino)-5-(trifluoromethyl)pyrimidin-4-yl)-4-methyl-3,4-dihydrothieno[2,3-f][1,4]thiazepin-5(2H)-one 1,1-dioxide]
14 | ≥ 8.30 | CCc1cc2c(cc1Nc1ncc(C(F)(F)F)c(-c3cc4c(s3)C(=O)NCCS4(=O)=O)n1)CCNC2 [Example 138, 7-(2-((7-ethyl-1,2,3,4-tetrahydroisoquinolin-6-yl)amino)-5-(trifluoromethyl)pyrimidin-4-yl)-3,4-dihydrothieno[2,3-f][1,4]thiazepin-5(2H)-one 1,1-dioxide]
15 | ≥ 8.30 | CCc1cc2c(cc1Nc1ncc(C(F)(F)F)c(-c3cc4c(s3)C(=O)N(C)CCS4(=O)=O)n1)CCNC2 [Example 147, 7-(2-((7-ethyl-1,2,3,4-tetrahydroisoquinolin-6-yl)amino)-5-(trifluoromethyl)pyrimidin-4-yl)-4-methyl-3,4-dihydrothieno[2,3-f][1,4]thiazepin-5(2H)-one 1,1-dioxide]
16 | ≥ 8.30 | CCc1cc2c(cc1Nc1ncc(C(F)(F)F)c(-c3cc4c(s3)C(=O)N(C3CC3)CCS4(=O)=O)n1)CCNC2 [Example 207, 4-cyclopropyl-7-(2-((7-ethyl-1,2,3,4-tetrahydroisoquinolin-6-yl)amino)-5-(trifluoromethyl)pyrimidin-4-yl)-3,4-dihydrothieno[2,3-f][1,4]thiazepin-5(2H)-one 1,1-dioxide]
17 | ≥ 8.30 | CN1CCS(=O)(=O)c2cc(-c3nc(Nc4cc5c(cc4C4CC4)CNCC5)ncc3C(F)(F)F)sc2C1=O [Example 173, 7-(2-((7-cyclopropyl-1,2,3,4-tetrahydroisoquinolin-6-yl)amino)-5-(trifluoromethyl)pyrimidin-4-yl)-4-methyl-3,4-dihydrothieno[2,3-f][1,4]thiazepin-5(2H)-one 1,1-dioxide]
18 | ≥ 8.30 | O=C1c2sc(-c3nc(Nc4cc5c(cc4C4CC4)CCNC5)ncc3C(F)(F)F)cc2S(=O)(=O)CCN1C1CC1 [Example 224, 4-cyclopropyl-7-(2-((6-cyclopropyl-1,2,3,4-tetrahydroisoquinolin-7-yl)amino)-5-(trifluoromethyl)pyrimidin-4-yl)-3,4-dihydrothieno[2,3-f][1,4]thiazepin-5(2H)-one 1,1-dioxide]
19 | ≥ 8.30 | CCc1cc2c(cc1Nc1ncc(C(F)(F)F)c(-c3cc4c(s3)C(=O)N(C3COC3)CCS4(=O)=O)n1)CNCC2 [Example 262, 7-(2-((6-ethyl-1,2,3,4-tetrahydroisoquinolin-7-yl)amino)-5-(trifluoromethyl)pyrimidin-4-yl)-4-(oxetan-3-yl)-3,4-dihydrothieno[2,3-f][1,4]thiazepin-5(2H)-one 1,1-dioxide]
20 | ≥ 8.30 | O=C1c2sc(-c3nc(Nc4cc5c(cc4C4CC4)CNCC5)ncc3C(F)(F)F)cc2S(=O)(=O)CCN1C1CC1 [Example 209, 4-cyclopropyl-7-(2-((7-cyclopropyl-1,2,3,4-tetrahydroisoquinolin-6-yl)amino)-5-(trifluoromethyl)pyrimidin-4-yl)-3,4-dihydrothieno[2,3-f][1,4]thiazepin-5(2H)-one 1,1-dioxide]

Source: patent US20250144094A1 (Erasca, Inc., priority 2021, published 2025)
